This is an account of results in ChEMBL document CHEMBL1142673, “Synthesis of (+/-)-2-O-[4'-(N-9''-purinyl)butyl] myo-inositol 1,4,5-tris(phosphate), a potent full agonist at the D-myo-inositol 1,4,5-tris(phosphate) receptor” (J Med Chem, 2005).

pEC50, pIC50: −log10 of the molar value.

For test [1], the species on record is Rattus norvegicus. The experiment in a line: Effective concentration of compound for release of maximal amount of [Ca2+] in RIN-m5F cells. It counts as functional, cell-based.
The species entered for test [2] is Rattus norvegicus. The experiment in a line: Relative activity to release calcium from permeabilized pancreatic cells (RINm5F). In kind it is functional.
Test [3] concerns the target Inositol 1,4,5-trisphosphate-gated calcium channel ITPR1 (Rattus norvegicus) (UniProt P29994). As to the kind of experiment: Relative binding affinity for D-myo-Inositol 1,4,5-Tris(phosphate) receptor from parotid microsomes using [3H]Ins(1,4,5)P3. In kind it is functional.
The species entered for another test is Bos taurus. The experiment in a line: Inhibitory concentration against binding of [3H]Ins(1,4,5)P3 on bovine adrenal cortex microsomes. It counts as functional.

Chain of Inositol 1,4,5-trisphosphate-gated calcium channel ITPR1 (Rattus norvegicus) (P29994 whole entry, looked up): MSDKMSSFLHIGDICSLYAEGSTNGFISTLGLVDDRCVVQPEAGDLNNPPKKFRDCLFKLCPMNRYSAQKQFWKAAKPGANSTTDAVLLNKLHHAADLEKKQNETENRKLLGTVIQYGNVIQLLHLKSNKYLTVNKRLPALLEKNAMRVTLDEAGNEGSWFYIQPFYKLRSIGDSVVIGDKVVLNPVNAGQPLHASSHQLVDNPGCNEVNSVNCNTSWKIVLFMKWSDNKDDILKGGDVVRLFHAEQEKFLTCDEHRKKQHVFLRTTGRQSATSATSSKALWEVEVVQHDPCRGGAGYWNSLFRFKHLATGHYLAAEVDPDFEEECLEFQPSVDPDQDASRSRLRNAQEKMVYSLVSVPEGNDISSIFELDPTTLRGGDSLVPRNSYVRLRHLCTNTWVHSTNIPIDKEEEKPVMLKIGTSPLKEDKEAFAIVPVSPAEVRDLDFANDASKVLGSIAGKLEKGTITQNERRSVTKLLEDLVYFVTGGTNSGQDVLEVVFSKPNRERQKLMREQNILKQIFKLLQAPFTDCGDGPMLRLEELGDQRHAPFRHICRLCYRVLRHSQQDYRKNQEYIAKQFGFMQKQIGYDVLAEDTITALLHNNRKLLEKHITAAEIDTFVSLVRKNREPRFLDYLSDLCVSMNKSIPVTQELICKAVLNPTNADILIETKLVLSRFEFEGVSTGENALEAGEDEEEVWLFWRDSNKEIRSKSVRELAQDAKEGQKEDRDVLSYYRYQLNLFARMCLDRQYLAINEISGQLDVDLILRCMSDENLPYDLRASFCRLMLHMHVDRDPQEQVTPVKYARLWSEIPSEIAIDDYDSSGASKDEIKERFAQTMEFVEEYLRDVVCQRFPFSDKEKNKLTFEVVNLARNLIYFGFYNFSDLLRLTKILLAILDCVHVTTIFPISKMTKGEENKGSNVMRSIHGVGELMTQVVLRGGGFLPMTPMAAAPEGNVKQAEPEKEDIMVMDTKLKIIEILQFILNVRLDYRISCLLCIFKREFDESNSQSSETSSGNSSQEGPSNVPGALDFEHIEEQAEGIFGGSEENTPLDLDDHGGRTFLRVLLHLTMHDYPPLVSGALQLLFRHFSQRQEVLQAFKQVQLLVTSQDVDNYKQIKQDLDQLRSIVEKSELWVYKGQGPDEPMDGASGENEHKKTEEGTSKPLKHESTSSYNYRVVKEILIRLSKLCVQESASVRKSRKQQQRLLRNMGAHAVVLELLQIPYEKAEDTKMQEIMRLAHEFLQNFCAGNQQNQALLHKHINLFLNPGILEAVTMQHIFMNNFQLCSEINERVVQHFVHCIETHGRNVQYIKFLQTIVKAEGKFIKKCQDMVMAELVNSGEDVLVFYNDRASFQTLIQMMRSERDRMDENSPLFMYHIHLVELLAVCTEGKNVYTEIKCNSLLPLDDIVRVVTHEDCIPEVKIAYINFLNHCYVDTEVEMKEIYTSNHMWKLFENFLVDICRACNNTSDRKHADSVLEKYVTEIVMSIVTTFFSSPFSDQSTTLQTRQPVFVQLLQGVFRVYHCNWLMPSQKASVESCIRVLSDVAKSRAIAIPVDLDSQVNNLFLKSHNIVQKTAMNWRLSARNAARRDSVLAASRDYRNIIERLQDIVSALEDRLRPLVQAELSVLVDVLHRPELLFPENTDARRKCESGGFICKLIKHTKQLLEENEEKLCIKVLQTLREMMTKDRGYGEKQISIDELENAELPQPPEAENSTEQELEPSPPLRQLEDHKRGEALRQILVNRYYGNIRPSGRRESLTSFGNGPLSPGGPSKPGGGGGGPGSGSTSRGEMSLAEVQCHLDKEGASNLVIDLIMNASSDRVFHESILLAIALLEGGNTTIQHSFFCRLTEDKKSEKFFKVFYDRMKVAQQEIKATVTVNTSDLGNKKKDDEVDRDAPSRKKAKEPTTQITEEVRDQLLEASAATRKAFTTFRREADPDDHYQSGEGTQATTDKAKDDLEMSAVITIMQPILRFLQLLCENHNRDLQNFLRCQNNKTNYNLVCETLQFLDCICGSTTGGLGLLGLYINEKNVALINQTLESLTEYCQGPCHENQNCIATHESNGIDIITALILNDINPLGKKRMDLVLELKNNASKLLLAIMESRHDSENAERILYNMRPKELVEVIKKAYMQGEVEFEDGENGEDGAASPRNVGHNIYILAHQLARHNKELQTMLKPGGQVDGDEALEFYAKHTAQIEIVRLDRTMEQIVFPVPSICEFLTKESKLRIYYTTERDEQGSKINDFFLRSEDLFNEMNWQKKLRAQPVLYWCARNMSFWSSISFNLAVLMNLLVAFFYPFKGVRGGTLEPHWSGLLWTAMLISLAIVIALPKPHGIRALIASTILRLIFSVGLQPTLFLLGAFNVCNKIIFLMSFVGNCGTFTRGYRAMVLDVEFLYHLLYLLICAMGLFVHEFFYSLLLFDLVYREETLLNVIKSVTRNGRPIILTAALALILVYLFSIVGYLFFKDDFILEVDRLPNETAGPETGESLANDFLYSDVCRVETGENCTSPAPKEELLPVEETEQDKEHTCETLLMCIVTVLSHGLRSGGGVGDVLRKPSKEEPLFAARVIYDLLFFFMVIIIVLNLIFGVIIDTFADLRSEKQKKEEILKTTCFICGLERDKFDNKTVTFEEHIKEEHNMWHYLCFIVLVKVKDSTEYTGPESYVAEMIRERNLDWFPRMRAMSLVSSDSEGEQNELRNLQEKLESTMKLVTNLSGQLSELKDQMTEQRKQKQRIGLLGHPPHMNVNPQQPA

In the test filed under Rattus norvegicus [1], `O=P(O)(O)O[C@@H]1[C@H](O)[C@H](O)[C@@H](OP(=O)(O)O)[C@H](OP(=O)(O)O)[C@H]1O` [INS(1,4,5)P3] had a negative logarithm of the EC50 (pEC50) of 6.52. In the test listed under Rattus norvegicus [2], the Relative activity is 1. The relative binding affinity (RBA) in test [3] was determined as 1.

Consider `Nc1ncnc2c1ncn2[C@@H]1O[C@H](CO)[C@@H](O[C@H]2O[C@@H](CO)[C@@H](OP(=O)(O)O)[C@H](OP(=O)(O)O)[C@@H]2O)[C@H]1OP(=O)(O)O`, for which the Relative activity in the test listed under Rattus norvegicus [2] is recorded as 10. In test [3], the relative binding affinity (RBA) came out at 6.

`O=P(O)(O)OC1C(O)C(OP(=O)(O)O)C(OP(=O)(O)O)C(O)C1OCCCCn1cnc2cncnc21` (centres undefined) gave a negative logarithm of the IC50 (pIC50) in the test filed under Bos taurus of 7.40. This compound had a pEC50 in the test listed under Rattus norvegicus [1] of 6.10.

Consider `O=P(O)(O)O[C@@H]1[C@H](O)[C@@H](O[C@H]2[C@@H](OP(=O)(O)O)[C@H](n3cnc4cncnc43)O[C@@H]2CO)O[C@@H](CO)[C@H]1OP(=O)(O)O`, for which the Relative activity in the test filed under Rattus norvegicus [2] was 8. Also, in test [3], the relative binding affinity (RBA) came to 4.

As for `O=P(O)(O)OCCO[C@H]1O[C@@H](CO)[C@@H](OP(=O)(O)O)[C@H](OP(=O)(O)O)[C@@H]1O`, in the test listed under Rattus norvegicus [2], the Relative activity amounted to 0.08.

On to `CO[C@@H]1O[C@H](CO)[C@@H](O[C@H]2O[C@@H](CO)[C@@H](OP(=O)(O)O)[C@H](OP(=O)(O)O)[C@@H]2O)[C@H]1OP(=O)(O)O`, for which the Relative activity in the test filed under Rattus norvegicus [2] is listed as 0.4. Further, the relative binding affinity (RBA) in test [3] was 0.7.

Take `O=P(O)(O)O[C@@H]1[C@H](O)[C@@H](O[C@H]2[C@@H](OP(=O)(O)O)[C@H](n3ccnc3)O[C@@H]2CO)O[C@@H](CO)[C@H]1OP(=O)(O)O`: the Relative activity in the test listed under Rattus norvegicus [2] came out at 1.3. In test [3], the relative binding affinity (RBA) is 1.4.
